Experimental data published in patent US20260041620A1, “NOVEL AMINO ACID BASED SALTS, COMPOSITIONS AND METHODS FOR TREATING SKIN AND IMPROVING SKIN REJUVENATION AND LONGEVITY” (Sytheon Ltd, priority 2023, published 2026).
Where two headings read alike, the source gives them in different places.

What was measured:
HDAC 5 = HDAC 5 (Homo sapiens, UniProt Q9UQL6)
Experimental: (§1) Test materials were stored at room temperature and stock solutions were prepared at 20 mg/ml in DMSO. Further dilutions were made in sterile distilled water immediately before being added to the reaction mixture containing a substrate, and the reaction was triggered by the addition of purified HDAC enzymes, Double distilled water was the negative control and trichostatin (1.5 ug/ml) was used as a positive control for validation of each study. The test procedure was as directed in the assay kits. The products of the reactions were measured by fluorometry at ex/em 350/450 nm using multi-well plate fluorometer Cytofluor 4000 (Applied Biosystem, Foster City, CA) or using SpectraMax i3× Multi-Mode Detection Platform from Molecular Devices (Sunnyvale, CA).
(§2) Statistical significance was assessed with a two-tail Student test. Deviations of ≤20% as compared to water control with p values below 0.05 were considered statistically significant.

HDAC7 = biological target: T1, HDAC7 (Homo sapiens, UniProt Q8WUI4)
T1 sequence (Q8WUI4 1-952): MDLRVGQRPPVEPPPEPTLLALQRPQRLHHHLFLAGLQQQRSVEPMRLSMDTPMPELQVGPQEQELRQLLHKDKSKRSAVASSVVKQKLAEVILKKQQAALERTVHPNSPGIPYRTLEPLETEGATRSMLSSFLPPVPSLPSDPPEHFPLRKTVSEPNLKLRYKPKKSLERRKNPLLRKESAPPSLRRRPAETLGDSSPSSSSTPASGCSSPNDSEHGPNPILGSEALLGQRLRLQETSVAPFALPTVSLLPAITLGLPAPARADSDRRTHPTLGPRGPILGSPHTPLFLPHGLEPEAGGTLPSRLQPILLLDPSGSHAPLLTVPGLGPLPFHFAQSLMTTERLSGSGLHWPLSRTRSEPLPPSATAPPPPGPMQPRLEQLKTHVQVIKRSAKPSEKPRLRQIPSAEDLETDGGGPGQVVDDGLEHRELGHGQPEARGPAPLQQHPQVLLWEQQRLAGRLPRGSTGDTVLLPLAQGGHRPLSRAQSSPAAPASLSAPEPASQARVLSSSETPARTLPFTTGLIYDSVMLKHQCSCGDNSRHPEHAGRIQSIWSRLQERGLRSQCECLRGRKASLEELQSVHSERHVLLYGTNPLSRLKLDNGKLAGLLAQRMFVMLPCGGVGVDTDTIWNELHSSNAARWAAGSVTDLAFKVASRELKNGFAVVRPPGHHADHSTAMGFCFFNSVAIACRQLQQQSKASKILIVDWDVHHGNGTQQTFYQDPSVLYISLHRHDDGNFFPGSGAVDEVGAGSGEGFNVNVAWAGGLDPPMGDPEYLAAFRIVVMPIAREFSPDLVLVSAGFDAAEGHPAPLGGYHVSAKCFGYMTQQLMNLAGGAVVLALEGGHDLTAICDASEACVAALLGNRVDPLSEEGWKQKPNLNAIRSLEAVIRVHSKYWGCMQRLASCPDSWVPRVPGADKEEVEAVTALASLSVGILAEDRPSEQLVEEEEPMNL
Experimental: as §1, §2

FABP-3 = biological target: T2, FABP-3 (Homo sapiens, UniProt P05413); experiment: FABP-3 ELISA inhibitory assay; format: biochemical
T2 construct: purchased Neovateinbio PT-452
T2 sequence (P05413 whole entry): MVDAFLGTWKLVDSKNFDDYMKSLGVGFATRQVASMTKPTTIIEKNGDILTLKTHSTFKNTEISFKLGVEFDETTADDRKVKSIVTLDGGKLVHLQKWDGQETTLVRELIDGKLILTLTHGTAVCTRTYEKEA

HDAC1 = HDAC1 (Homo sapiens, UniProt Q13547); experiment: HDAC 1 fluorogenic assay kit
Chain of HDAC1 (Q13547 whole entry): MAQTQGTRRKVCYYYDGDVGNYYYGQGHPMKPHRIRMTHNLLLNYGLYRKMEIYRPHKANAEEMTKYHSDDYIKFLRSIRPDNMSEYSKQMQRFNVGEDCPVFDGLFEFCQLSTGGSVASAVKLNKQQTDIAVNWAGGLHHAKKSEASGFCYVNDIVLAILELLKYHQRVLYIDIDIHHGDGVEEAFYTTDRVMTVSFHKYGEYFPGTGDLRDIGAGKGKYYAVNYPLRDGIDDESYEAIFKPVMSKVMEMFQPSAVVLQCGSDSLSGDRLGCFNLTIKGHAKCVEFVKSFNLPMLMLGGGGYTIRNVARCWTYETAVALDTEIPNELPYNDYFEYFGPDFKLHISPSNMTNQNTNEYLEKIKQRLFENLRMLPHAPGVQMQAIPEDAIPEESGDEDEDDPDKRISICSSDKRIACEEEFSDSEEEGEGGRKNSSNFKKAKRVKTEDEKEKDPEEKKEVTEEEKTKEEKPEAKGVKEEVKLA
Experimental: as §1, §2

HDAC 8 = biological target: T3, HDAC 8 (Homo sapiens, UniProt Q9BY41)
T3 sequence (Q9BY41 1-377): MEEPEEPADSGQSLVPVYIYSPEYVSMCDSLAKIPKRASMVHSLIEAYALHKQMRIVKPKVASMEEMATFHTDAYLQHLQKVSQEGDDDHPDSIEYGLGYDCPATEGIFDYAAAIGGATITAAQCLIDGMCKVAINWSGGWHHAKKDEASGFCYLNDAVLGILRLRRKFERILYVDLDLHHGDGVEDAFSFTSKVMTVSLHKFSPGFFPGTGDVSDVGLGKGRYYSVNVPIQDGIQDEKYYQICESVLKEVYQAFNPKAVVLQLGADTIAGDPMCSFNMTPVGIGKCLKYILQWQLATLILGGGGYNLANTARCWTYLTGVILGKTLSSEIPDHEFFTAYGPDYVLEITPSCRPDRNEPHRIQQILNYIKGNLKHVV
Experimental: as §1, §2

HDAC 4 = HDAC 4 (Homo sapiens, UniProt P56524); experiment: HDAC 4 fluorogenic assay kit
Chain of HDAC 4 (P56524 whole entry): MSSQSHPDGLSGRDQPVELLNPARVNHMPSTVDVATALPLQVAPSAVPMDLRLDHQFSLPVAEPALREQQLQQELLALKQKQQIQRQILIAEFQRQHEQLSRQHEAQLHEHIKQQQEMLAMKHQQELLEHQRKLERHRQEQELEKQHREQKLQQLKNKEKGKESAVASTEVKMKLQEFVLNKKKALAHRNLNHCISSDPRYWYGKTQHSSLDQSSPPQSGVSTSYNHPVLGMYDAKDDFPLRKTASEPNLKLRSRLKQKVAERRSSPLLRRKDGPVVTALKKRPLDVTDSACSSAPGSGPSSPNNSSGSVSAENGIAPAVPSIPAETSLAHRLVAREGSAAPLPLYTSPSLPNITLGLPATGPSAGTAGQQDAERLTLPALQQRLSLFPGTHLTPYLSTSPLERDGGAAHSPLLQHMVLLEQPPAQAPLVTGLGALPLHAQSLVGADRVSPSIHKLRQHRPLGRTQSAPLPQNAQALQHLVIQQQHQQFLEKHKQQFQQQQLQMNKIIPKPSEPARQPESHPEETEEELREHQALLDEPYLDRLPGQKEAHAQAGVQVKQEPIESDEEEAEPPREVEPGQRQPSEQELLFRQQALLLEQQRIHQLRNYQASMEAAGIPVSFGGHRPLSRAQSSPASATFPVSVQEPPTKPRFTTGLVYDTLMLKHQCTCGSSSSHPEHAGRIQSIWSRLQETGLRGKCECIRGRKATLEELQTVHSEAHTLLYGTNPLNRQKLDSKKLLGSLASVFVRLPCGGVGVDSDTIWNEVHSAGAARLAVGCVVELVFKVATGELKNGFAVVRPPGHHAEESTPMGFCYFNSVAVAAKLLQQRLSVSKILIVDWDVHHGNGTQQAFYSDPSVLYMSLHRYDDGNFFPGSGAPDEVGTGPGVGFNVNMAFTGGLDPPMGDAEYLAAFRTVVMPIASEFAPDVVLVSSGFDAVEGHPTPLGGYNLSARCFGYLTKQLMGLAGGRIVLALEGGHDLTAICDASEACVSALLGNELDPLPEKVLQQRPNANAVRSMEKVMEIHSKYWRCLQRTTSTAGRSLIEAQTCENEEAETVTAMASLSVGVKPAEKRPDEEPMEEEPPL
Experimental: as §1, §2

HDAC 9 = HDAC 9 (Homo sapiens, UniProt Q9UKV0)
Chain of HDAC 9 (Q9UKV0 whole entry): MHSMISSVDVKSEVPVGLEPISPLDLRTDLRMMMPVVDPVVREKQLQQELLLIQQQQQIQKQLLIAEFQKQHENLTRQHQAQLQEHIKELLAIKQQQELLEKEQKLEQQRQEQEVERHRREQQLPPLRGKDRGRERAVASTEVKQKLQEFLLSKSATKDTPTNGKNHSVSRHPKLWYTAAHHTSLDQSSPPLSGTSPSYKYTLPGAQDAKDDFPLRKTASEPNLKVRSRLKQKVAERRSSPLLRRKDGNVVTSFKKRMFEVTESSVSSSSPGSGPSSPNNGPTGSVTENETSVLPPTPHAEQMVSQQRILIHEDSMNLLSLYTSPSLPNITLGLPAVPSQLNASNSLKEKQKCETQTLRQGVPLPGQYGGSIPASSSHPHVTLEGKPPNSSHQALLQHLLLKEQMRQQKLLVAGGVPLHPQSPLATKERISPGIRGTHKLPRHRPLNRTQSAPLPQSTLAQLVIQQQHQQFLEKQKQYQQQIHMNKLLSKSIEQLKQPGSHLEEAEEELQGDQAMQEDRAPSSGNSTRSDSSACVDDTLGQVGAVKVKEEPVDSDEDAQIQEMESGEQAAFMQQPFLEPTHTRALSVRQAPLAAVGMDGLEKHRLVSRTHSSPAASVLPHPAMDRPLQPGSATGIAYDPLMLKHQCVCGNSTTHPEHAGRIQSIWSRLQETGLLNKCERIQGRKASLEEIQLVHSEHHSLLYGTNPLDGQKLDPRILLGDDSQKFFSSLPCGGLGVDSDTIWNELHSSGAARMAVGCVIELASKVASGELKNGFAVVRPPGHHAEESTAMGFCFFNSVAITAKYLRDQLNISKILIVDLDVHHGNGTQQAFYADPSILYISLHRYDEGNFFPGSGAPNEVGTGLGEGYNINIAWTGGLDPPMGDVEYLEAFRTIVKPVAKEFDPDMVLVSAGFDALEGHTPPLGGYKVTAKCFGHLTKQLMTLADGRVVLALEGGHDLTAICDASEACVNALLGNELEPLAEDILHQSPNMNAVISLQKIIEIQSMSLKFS
Experimental: as §1, §2

HDAC10 = biological target: T4, HDAC10 (Homo sapiens, UniProt Q969S8)
T4 sequence (Q969S8 1-669): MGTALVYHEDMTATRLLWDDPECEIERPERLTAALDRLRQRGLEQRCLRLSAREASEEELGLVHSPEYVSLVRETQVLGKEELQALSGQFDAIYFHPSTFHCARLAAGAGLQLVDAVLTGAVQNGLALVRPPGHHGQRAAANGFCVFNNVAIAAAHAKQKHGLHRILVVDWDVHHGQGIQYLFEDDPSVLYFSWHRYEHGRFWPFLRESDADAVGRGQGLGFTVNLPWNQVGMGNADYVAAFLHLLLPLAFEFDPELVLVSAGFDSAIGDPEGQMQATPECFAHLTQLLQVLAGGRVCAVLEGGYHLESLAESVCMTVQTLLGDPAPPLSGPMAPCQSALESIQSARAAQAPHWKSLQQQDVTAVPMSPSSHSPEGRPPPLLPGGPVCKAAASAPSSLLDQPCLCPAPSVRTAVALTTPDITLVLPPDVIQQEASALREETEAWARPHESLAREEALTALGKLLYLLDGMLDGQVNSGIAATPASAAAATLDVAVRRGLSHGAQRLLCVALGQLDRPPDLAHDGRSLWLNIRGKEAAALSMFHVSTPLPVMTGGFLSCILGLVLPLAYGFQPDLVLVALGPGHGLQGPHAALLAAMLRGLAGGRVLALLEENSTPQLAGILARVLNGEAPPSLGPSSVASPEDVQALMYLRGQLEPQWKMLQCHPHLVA
Experimental: as §1, §2

Chain of HDAC 5 (Q9UQL6 whole entry): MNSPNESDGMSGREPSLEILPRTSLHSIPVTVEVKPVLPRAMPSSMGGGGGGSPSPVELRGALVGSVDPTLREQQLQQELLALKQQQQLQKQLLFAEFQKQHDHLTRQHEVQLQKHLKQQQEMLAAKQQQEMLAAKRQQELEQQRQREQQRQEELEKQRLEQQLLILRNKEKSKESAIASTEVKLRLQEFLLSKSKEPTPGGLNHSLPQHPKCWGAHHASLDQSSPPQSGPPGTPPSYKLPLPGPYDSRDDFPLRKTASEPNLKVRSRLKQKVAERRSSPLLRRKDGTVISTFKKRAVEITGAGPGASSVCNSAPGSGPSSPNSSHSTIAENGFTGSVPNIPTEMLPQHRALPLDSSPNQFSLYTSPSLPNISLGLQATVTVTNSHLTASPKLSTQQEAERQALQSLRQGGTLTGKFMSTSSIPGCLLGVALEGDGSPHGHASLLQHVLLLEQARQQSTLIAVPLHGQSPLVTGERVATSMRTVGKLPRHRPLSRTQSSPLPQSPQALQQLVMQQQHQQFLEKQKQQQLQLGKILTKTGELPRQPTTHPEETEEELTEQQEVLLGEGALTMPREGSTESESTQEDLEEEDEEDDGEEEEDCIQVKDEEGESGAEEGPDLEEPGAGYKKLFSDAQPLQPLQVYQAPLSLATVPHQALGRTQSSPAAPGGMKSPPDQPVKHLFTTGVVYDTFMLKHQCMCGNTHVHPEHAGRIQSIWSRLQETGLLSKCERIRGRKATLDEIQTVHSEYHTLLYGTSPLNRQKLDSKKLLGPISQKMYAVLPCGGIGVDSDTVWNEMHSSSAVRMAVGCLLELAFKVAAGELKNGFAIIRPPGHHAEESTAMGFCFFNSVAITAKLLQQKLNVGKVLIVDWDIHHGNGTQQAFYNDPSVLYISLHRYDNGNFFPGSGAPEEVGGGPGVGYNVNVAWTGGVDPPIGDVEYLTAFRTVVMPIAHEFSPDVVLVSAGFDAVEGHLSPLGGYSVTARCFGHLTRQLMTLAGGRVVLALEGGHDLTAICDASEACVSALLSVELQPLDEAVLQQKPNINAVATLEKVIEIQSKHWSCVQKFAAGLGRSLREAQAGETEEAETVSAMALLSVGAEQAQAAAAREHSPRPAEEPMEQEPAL

Compound | HDAC 5 activity, % of water-treated controls (HDAC 5; 25 ug/ml) | HDAC 5 activity, % of water-treated controls (HDAC 5; 50 ug/ml) | HDAC 5 activity, % of water-treated controls (HDAC 5; 100 ug/ml) | HDAC 5 activity, % of water-treated controls (HDAC 5; 200 ug/ml) | HDAC 7 activity, % of water-treated controls (HDAC7; 25 ug/ml) | HDAC 7 activity, % of water-treated controls (HDAC7; 50 ug/ml) | HDAC 7 activity, % of water-treated controls (HDAC7; 100 ug/ml) | HDAC 7 activity, % of water-treated controls (HDAC7; 200 ug/ml) | FABP-3 IC50 (FABP-3) | HDAC 1 activity, % of water-treated controls (HDAC1; 25 ug/ml) | HDAC 1 activity, % of water-treated controls (HDAC1; 50 ug/ml) | HDAC 1 activity, % of water-treated controls (HDAC1; 100 ug/ml) | HDAC 8 activity, % of water-treated controls (HDAC 8; 5 ug/ml) | HDAC 8 activity, % of water-treated controls (HDAC 8; 25 ug/ml) | HDAC 8 activity, % of water-treated controls (HDAC 8; 50 ug/ml) | HDAC 8 activity, % of water-treated controls (HDAC 8; 100 ug/ml) | HDAC 8 activity, % of water-treated controls (HDAC 8; 200 ug/ml) | HDAC 4 activity, % of water-treated controls (HDAC 4; 25 ug/ml) | HDAC 4 activity, % of water-treated controls (HDAC 4; 50 ug/ml) | HDAC 4 activity, % of water-treated controls (HDAC 4; 100 ug/ml) | also measured
CCCC(=O)NCCCC[C@H](NC(=O)CCC)C(=O)[O-].CCCC(=O)NCCCC[C@H](NC(=O)CCC)C(=O)[O-].[Zn+2] [Zn di-(di-n-butyryl lysinate), Zinc di-(di-n-butyryl lysinate)] | 89% | 65% | 33% | 17% | 28% | 15% | 9% | 9% | 242.4 µg/mL | 32% | 38% | 49% | 15% | 15% | 15% | 13% | 17% | 120% | 60% | 39% | HDAC 7 activity, % of water-treated controls (HDAC7; 5 ug/ml): 56%; HDAC 1 activity, % of water-treated controls (HDAC1; 5 ug/ml): 30%; HDAC 1 activity, % of water-treated controls (HDAC1; 200 ug/ml): 45%; HDAC 9 activity, % of water-treated controls (HDAC 9; 5 ug/ml): 39%; HDAC 9 activity, % of water-treated controls (HDAC 9; 25 ug/ml): 29%; HDAC 9 activity, % of water-treated controls (HDAC 9; 50 ug/ml): 25%; HDAC 9 activity, % of water-treated controls (HDAC 9; 100 ug/ml): 19%; HDAC 9 activity, % of water-treated controls (HDAC 9; 200 ug/ml): 20%; HDAC 10 activity, % of water-treated controls (HDAC10; 5 ug/ml): 21%; HDAC 10 activity, % of water-treated controls (HDAC10; 25 ug/ml): 15%; HDAC 10 activity, % of water-treated controls (HDAC10; 50 ug/ml): 13%; HDAC 10 activity, % of water-treated controls (HDAC10; 100 ug/ml): 9%; HDAC 10 activity, % of water-treated controls (HDAC10; 200 ug/ml): 7%
Zinc Di-lysinate [Zn dilysinate] | 73% | 52% | 31% | 14% | 30% | 18% | 10% | 10% | 255.2 µg/mL | 52% | 44% | 32% | 13% | 13% | 14% | 13% | 12% | 100% | 92% | 63% | HDAC 9 activity, % of water-treated controls (HDAC 9; 5 ug/ml): 21%; HDAC 9 activity, % of water-treated controls (HDAC 9; 25 ug/ml): 18%; HDAC 9 activity, % of water-treated controls (HDAC 9; 50 ug/ml): 15%; HDAC 9 activity, % of water-treated controls (HDAC 9; 100 ug/ml): 15%; HDAC 9 activity, % of water-treated controls (HDAC 9; 200 ug/ml): 16%; HDAC 10 activity, % of water-treated controls (HDAC10; 25 ug/ml): 19%; HDAC 10 activity, % of water-treated controls (HDAC10; 50 ug/ml): 12%; HDAC 10 activity, % of water-treated controls (HDAC10; 100 ug/ml): 9%; HDAC 10 activity, % of water-treated controls (HDAC10; 200 ug/ml): 6%
